One assay addresses T1, Toll-like receptor 8 (Homo sapiens, UniProt Q9NR97).
T1 sequence (Q9NR97 whole entry): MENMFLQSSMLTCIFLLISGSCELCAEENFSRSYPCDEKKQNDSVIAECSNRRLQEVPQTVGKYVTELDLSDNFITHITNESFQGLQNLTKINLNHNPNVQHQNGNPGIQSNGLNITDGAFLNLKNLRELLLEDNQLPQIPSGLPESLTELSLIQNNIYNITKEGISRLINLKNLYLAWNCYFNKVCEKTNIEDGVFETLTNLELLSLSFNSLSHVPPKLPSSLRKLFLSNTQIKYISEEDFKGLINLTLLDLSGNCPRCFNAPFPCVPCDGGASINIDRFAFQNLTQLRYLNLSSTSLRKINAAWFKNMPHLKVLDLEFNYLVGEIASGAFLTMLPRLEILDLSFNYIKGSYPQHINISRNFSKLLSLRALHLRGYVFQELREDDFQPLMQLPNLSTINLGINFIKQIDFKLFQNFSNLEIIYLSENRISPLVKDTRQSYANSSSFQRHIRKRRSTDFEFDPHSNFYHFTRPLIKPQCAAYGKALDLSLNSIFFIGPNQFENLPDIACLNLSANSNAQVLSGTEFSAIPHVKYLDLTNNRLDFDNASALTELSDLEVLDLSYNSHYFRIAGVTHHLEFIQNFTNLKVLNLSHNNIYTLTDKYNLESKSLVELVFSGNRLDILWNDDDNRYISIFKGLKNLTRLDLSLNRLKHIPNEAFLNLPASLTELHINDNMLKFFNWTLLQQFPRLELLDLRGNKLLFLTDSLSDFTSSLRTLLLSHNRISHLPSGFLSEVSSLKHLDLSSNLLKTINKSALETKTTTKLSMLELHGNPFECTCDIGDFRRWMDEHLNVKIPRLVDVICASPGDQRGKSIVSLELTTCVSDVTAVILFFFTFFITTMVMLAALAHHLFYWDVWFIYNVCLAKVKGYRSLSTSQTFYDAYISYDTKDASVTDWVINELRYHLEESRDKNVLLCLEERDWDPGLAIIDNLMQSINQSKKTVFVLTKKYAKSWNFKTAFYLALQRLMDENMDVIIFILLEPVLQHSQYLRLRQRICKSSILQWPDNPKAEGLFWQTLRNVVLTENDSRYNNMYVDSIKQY
Kind of assay: (§1) n Vitro Biological Assays: Plasmacytoid dendritic cell (pDC)—enriched peripheral blood mononuclear cells (PBMCs) were prepared from the blood of a series of human donors (3-5 donors/experiment). PBMCs were isolated using Ficoll-Paque Premium® (GE Healthcare, Chicago Ill.) using methods well known to those in the art. pDCs were magnetically isolated from the total recovered PBMC population using CD304 (BDCA-4/Neuropilin-1) microbeads (Miltenyi Biotec, San Diego Calif.), according to the manufacturer's instructions. Isolated pDCs were then added back to between 1 and 2×108 of the corresponding donor's PBMCs for relative enrichment of this cell type. […] Culture supernatants were collected and interferon-alpha (IFNα) protein levels were measured by ELISA (MabTech, Cincinnati Ohio), according to the manufacturer's instructions.Monocytes were magnetically isolated from PBMCs, prepared as described above, following labeling with CD14 microbeads (Miltenyi Biotec, San Diego Calif.), according to the manufacturer's instructions. […] Culture supernatants were collected and tumor necrosis factor alpha (TNFα) protein levels were measured by ELISA (MabTech, Cincinnati Ohio), according to the manufacturer's instructions. (An ELISA detects its analyte on a solid surface through an enzyme-linked reagent.)

The target of the next assay is T2, Toll-like receptor 7 (Homo sapiens, UniProt Q9NYK1).
T2 sequence (Q9NYK1 whole entry): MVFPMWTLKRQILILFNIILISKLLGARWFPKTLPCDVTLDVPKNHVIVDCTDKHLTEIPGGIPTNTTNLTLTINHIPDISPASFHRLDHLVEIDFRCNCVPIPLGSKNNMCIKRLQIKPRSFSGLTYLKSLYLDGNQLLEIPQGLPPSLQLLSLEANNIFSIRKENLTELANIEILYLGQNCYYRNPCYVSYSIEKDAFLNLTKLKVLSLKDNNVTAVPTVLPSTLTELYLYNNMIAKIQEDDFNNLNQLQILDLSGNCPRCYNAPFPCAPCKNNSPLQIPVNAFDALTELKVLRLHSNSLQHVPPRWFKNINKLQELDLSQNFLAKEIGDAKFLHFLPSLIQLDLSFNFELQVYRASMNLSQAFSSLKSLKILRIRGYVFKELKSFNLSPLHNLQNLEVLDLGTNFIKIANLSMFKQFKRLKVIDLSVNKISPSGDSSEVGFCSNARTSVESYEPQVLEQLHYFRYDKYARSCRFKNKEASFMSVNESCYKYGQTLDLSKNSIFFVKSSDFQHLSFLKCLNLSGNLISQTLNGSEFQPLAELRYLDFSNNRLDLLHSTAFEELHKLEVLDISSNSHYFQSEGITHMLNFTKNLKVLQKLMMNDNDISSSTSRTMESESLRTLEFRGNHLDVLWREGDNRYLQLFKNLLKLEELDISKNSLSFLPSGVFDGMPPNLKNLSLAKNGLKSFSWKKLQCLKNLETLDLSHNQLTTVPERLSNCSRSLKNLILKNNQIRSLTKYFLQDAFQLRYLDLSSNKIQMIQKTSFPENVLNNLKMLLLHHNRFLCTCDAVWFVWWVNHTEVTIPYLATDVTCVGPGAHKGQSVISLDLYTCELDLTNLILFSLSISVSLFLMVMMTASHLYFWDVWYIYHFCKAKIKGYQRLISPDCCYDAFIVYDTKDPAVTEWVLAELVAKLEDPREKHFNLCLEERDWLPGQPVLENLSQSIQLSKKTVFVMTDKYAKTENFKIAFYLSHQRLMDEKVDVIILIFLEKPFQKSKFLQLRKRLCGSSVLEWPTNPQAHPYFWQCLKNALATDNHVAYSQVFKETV
The assay is described as §1.

This is an account of results in ChEMBL document CHEMBL5728731, “Alkyl chain modified imidazoquinoline TLR7/8 agonist compounds and uses thereof” (2021).

As usually defined, the EC50 is the concentration at which the effect is half-maximal. Consider `CCCCCCCCCCCCCCCCCC(=O)NCc1ccc(Cn2c(CCCC)nc3c(N)nc4ccccc4c32)cc1`, for which the values for the EC50 on Toll-like receptor 8 and on Toll-like receptor 7 were 5720 nM and 41 nM, respectively.
Turning to `CCCCCC(=O)NCc1ccc(Cn2c(CCCC)nc3c(N)nc4ccccc4c32)cc1`, the concentration giving a half-maximal response (EC50) worked out at 2140 nM at Toll-like receptor 8 and 11 nM on Toll-like receptor 7.
Taken in the same sequence, the figures for `CCCCCCCCCCCCCCC(=O)NCc1ccc(Cn2c(CCCC)nc3c(N)nc4ccccc4c32)cc1` were 827 nM and 2 nM.
